Measurements reported in ChEMBL document CHEMBL5360622, “Leucettinibs, a Class of DYRK/CLK Kinase Inhibitors Inspired by the Marine Sponge Natural Product Leucettamine B” (J Med Chem, 2023).

Tests used:
[1] = target: Dual specificity protein kinase CLK3 (Homo sapiens, UniProt P49761); conditions: dose 10.0 µM
[2] = target: Casein kinase I isoform epsilon (Homo sapiens, UniProt P49674)
[3] = target: T1, Dual specificity tyrosine-phosphorylation-regulated kinase 2 (Homo sapiens, UniProt Q92630)
T1 sequence (Q92630 whole entry): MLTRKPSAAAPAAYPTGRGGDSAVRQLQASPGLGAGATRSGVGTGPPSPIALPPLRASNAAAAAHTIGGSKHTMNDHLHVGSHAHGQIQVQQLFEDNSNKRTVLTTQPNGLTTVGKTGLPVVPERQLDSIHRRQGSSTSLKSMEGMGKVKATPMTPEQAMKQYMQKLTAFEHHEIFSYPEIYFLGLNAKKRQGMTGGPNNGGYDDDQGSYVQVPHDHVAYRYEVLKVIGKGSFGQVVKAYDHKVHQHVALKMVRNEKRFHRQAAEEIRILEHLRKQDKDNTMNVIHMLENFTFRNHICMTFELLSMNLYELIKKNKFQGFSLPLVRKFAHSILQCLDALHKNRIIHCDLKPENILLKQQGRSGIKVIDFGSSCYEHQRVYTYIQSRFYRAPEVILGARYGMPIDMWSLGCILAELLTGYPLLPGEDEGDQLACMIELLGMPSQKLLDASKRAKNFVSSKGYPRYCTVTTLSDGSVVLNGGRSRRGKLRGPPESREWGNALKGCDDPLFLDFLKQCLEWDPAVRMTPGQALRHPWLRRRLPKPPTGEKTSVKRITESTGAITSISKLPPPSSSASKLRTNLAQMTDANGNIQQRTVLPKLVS

[4] = target: Cyclin-dependent kinase 5/CDK5 activator 1 (Homo sapiens, UniProt Q00535); assay type: cell-based, Sf9
Chain of Cyclin-dependent kinase 5/CDK5 activator 1 (Q00535 whole entry): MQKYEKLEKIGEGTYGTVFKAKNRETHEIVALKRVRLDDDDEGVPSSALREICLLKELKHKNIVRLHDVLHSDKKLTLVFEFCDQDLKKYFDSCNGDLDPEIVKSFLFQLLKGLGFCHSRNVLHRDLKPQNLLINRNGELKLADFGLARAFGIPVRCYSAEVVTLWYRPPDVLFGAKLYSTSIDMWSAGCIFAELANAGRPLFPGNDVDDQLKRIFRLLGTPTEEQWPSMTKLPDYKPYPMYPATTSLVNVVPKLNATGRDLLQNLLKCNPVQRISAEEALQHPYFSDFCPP
Chain of Cyclin-dependent kinase 5/CDK5 activator 1 (Q15078 whole entry, further chain): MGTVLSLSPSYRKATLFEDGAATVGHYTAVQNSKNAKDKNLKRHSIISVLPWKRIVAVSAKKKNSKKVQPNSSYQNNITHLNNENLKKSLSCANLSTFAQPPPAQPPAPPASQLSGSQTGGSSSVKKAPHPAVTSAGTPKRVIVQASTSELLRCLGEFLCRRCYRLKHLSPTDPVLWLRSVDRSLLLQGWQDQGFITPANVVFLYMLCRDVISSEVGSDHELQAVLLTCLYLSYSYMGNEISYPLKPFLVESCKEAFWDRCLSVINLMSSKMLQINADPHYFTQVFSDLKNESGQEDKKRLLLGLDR

[5] = target: Dual specificity tyrosine-phosphorylation-regulated kinase 1A (Homo sapiens, UniProt Q13627)

Chain of Casein kinase I isoform epsilon (P49674 whole entry, canonical isoform): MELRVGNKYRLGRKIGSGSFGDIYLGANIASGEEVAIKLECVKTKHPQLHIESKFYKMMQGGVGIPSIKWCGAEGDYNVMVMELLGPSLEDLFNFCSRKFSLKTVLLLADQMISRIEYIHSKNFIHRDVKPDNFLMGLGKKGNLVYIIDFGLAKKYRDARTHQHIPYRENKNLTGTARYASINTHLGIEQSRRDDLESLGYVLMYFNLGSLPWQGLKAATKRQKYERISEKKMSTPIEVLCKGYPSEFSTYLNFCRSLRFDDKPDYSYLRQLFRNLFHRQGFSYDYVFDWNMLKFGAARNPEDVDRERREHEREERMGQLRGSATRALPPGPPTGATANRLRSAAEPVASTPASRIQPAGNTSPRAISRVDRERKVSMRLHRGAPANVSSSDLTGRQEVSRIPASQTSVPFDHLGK
Chain of Dual specificity protein kinase CLK3 (P49761 whole entry, looked up, canonical isoform): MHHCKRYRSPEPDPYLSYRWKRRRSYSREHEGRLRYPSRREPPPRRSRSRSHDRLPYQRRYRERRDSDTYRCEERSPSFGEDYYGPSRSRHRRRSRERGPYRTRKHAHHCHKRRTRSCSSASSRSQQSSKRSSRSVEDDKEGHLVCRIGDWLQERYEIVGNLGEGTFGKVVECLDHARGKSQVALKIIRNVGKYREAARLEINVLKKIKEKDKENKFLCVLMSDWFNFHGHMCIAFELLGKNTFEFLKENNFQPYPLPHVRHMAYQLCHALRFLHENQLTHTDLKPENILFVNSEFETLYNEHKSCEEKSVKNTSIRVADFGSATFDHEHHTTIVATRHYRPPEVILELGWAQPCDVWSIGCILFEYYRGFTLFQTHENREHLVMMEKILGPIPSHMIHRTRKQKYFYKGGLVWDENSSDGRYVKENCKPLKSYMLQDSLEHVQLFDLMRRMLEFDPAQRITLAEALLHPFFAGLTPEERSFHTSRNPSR

## O=C1NC(NC23CC4CC(CC(C4)C2)C3)=N/C1=C\c1ccc2scnc2c1
[1]
  ΔTm: -0.5 °C
[2]
  IC50: > 10 µM
[3]
  IC50: > 10 µM
[4]
  IC50: > 10 µM
[5]
  IC50: 3.4 µM
